Among the data in patent publication US9096598B2 (Merck Sharp & Dohme Corp., priority 2011, dated 2015) are IC50 values, retold here.

Where only a bound is given, the exact number is not on record here.

Test [1] concerns the target T1, JAK3 (Homo sapiens, UniProt P52333).
T1 construct: recombinant purified GST-tagged catalytic domain for each enzyme; purchased Invitrogen M4290
Put plainly: Jak Biochemical HTRF Assay (JAK3). The following applies: recombinant purified GST-tagged catalytic domain, [ATP] 2.9 μM, values given as range classes. As for the experimental part:
(§1) Jak Biochemical HTRF Assay Protocol
(§2) The ability of compounds to inhibit the activity of JAK1, JAK2, JAK3, and Tyk2 was measured using a recombinant purified GST-tagged catalytic domain for each enzyme (Invitrogen JAK1 #M4290, JAK2 #M4290, JAK3 #M4290, Tyk2 #M4290) in an HTRF format biochemical assay. The reactions employed a common peptide substrate, LCB-EQEDEPEGDYFEWLW-NH2 (in-house). The basic assay protocol is as follows: First, 250 nL of diluted compounds in DMSO were dispensed into the wells of a dry 384-well Black plate (Greiner #781076) using a Labcyte Echo 555 acoustic dispenser. Subsequent reagent additions employed an Agilent Bravo. Next, 18 μL of 1.11× enzyme and 1.11× substrate in 1× assay buffer (Invitrogen kinase buffer #PV3189, 2 mM DTT, 0.05% BSA) were added to the wells and shaken and then preincubated for 30 minutes at room temperature to allow compound binding to equilibrate. After equilibration, 2 μL of 10×ATP in 1× assay buffer was added to initiate the kinase reaction and the plates were shaken and then incubated at room temperature for 120 minutes. At the end of the incubation, 20 μL of 2× stop buffer (streptavidin-Dylight 650 (Thermo #84547B/100 mL), Eu-tagged pY20 antibody (Perkin Elmer #AD0067), EDTA, HEPES, and Triton) was added to quench the reaction. Plates were shaken and centrifuged and then incubated 60 minutes at room temperature and then read on a Perkin Elmer Envision (λex=337 nm, λem=665 and 615 nm, TRF delay time=20 μs). HTRF signal=10,000*665 nm reading/615 nm reading. After normalization to untreated controls, the percent inhibition of the HTRF signal at each compound concentration was calculated. The plot of percent inhibition versus the log of compound concentration was fit with a 4-parameter dose response equation to calculate IC50 values.
(§3) Final reaction conditions were:
(§4) Examples of the instant invention were evaluated in JAK2 and JAK3 in vitro binding assays. Table 13 tabulates the biological data disclosed for the instant invention as a range of JAK2 and JAK3 IC50 values (A: IC50≦10 nM; B: 10 nM>IC50≦500 nM C: IC50>500 nM).
(Time-resolved FRET reads energy transfer from a long-lived donor to a nearby acceptor.)

In test [2] the target is T2, JAK2 (Homo sapiens, UniProt O60674).
T2 construct: recombinant purified GST-tagged catalytic domain for each enzyme; purchased Invitrogen M4290
T2 sequence (O60674 849-1124 limits assumed): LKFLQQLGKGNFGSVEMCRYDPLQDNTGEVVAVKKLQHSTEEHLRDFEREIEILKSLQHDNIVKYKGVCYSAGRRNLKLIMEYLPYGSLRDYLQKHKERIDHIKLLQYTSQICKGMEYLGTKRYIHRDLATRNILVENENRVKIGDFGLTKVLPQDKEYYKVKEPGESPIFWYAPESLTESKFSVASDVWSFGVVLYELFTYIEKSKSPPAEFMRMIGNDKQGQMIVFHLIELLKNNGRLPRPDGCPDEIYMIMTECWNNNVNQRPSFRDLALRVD
Put plainly: Jak Biochemical HTRF Assay (JAK2). The following applies: recombinant purified GST-tagged catalytic domain, [ATP] 8.5 μM, values given as range classes. As for the experimental part:
as §1, §2, §3, §4

T1 sequence (P52333 822-1111 limits assumed): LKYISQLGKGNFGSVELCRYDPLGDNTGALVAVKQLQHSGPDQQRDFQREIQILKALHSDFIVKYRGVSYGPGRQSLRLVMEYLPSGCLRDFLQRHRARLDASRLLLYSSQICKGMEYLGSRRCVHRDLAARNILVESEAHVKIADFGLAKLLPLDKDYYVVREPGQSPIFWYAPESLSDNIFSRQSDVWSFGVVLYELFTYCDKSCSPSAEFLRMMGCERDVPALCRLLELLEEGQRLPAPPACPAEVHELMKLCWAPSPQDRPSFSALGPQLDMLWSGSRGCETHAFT

Broadly, the IC50 is the concentration needed to halve the response being measured. As to `N#Cc1cnc2[nH]cc(-c3cncc(N[C@@H]4CCCC[C@@H]4C(=O)NCC(F)(F)F)c3)c2c1` [Example 1-38, (1S,2R)-2-{[5-(5-cyano-1H-pyrrolo[2,3-b]pyridin-3-yl)pyridin-3-yl]amino}-N-(2,2,2-trifluoroethyl)cyclohexane-carboxamide], the IC50 is no more than 10 nM in test [1] and 10 to 500 nM in test [2].
Regarding `C[C@@H](Nc1cncc(-c2c[nH]c3ncc(C#N)cc23)c1)C(=O)NCC(F)(F)F` [Example 1-32, N~2~-[5-(5-cyano-1H-pyrrolo[2,3-b]pyridin-3-yl)pyridin-3-yl]-N-(2,2,2-trifluoroethyl)-D-alaninamide], the IC50 in test [1] was no more than 10 nM; in test [2], 10 to 500 nM.
In the case of `COc1cnc2[nH]cc(-c3cncc(N[C@@H](C(=O)NCC(F)(F)F)C(C)(C)O)c3)c2c1` [Example 1-50, 3-hydroxy-N~2~-[5-(5-methoxy-1H-pyrrolo[2,3-b]pyridin-3-yl)pyridin-3-yl]-N-(2,2,2-trifluoroethyl)-D-valinamide], the IC50 in test [1] was no more than 10 nM; in test [2], 10 to 500 nM.
As for `Clc1cnc2[nH]cc(-c3nncc(N4CCCC4c4nccs4)n3)c2c1` (stereo not shown) [Example 1-5, 5-chloro-3-{5-[2-(1,3-thiazol-2-yl)pyrrolidin-1-yl]-1,2,4-triazin-3-yl}-1H-pyrrolo[2,3-b]pyridine], the IC50 in test [1] and in test [2] was 10 to 500 nM each time.
As for `CC(C)[C@H](Nc1cncc(-c2c[nH]c3ncc(OC4CCCC4)cc23)c1)C(=O)NCC(F)(F)F` [Example 2-5, N~2~-{5-[5-(cyclopentyloxy)-1H-pyrrolo[2,3-b]pyridin-3-yl]pyridin-3-yl}-N-(2,2,2-trifluoroethyl)valinamide], the figures for the IC50 in test [1] and in test [2] were no more than 10 nM and 10 to 500 nM, respectively.
As to `CC(C)[C@H](Nc1cncc(-c2c[nH]c3ncc(OC4Cc5ccccc5C4)cc23)c1)C(=O)NCC(F)(F)F` [Example 2-8, N~2~-{5-[5-(2,3-dihydro-1H-inden-2-yloxy)-1H-pyrrolo[2,3-b]pyridin-3-yl]pyridin-3-yl}-N-(2,2,2-trifluoroethyl)valinamide], the IC50 was no more than 10 nM in test [1] and 10 to 500 nM in test [2].
Regarding `CC(C)[C@@H](Nc1cncc(-c2c[nH]c3ncc(C(=O)N(C)C(C)c4ccn[nH]4)cc23)c1)C(=O)NCC(F)(F)F` (stereo partly drawn) [Example 3-11, N-methyl-3-[5-({(1R)-2-methyl-1-[(2,2,2-trifluoroethyl)carbamoyl]propyl}amino)pyridin-3-yl]-N-[1-(1H-pyrazol-5-yl)ethyl]-1H-pyrrolo[23-b]pyridine-5-carboxamide], the IC50 is 10 to 500 nM in test [1] and greater than 500 nM in test [2].
For `CC(C)C(Nc1cncc(-c2c[nH]c3ncc(OC4CCN(C)CC4)cc23)c1)C(=O)NCC(F)(F)F` (stereo not shown) [Example 2-16, N~2~-(5-{5-[(1-methylpiperidin-4-yl)oxy]-1H-pyrrolo[2,3-b]pridin-3-yl}pyridin-3-yl)-N-(2,2,2-trifluoroethyl)valinamide], the IC50 was no more than 10 nM in test [1] and 10 to 500 nM in test [2].
In the case of `CC(C)[C@H](Nc1cncc(-c2c[nH]c3ncc(NC(=O)Nc4ccc(F)cc4F)cc23)c1)C(=O)NCC(F)(F)F` [Example 6-3, N~2~-[5-(5-{[(2,4-difluorophenyl)carbamoyl]amino}-1H-pyrrolo[2,3-b]pyridin-3-yl)pyridin-3-yl]-N-(2,2,2-trifluoroethyl)valinamide], the IC50 in test [1] is no more than 10 nM; in test [2], 10 to 500 nM.
Take `N#Cc1cnc2[nH]cc(-c3nncc(N[C@@H]4CCCC[C@@H]4C(=O)NCC(F)(F)F)n3)c2c1` [Example 1-22, (1S,2R)-2-{[3-(5-cyano-1H-pyrrolo[2,3-b]pyridin-3-yl)-1,2,4-triazin-5-yl]amino}-N-(2,2,2-trifluoroethyl)cyclohexane-carboxamide]: the IC50 in test [1] and in test [2] was 10 to 500 nM throughout.
On to `CC(C(=O)NCC(F)(F)F)n1ccc2ncc(-c3c[nH]c4ncc(Cl)cc34)cc21` (stereo not shown) [Example 1-35, 2-[6-(5-chloro-1H-pyrrolo[2,3-b]pyridin-3-yl)-1H-pyrrolo[3,2-b]pyridin-1-yl]-N-(2,2,2-trifluoroethyl)propanamide], for which the IC50 in test [1] was no more than 10 nM; in test [2], 10 to 500 nM.
As for `COCc1cnc2[nH]cc(-c3nncc(N[C@@H](C(=O)NCC(F)(F)F)C(C)C)n3)c2c1` [Example 9-8, N~2~-{3-[5-(methoxymethyl)-1H-pyrrolo[2,3-b]pyridin-3-yl]-1,2,4-triazin-5-yl}-N-(2,2,2-trifluoroethyl)-D-valinamide], the IC50 in test [1] and in test [2] was 10 to 500 nM in each case.
`O=C(NCC(F)(F)F)[C@H]1CCCC[C@H]1Nc1cncc(-c2c[nH]c3ncc(F)cc23)c1` [Example 1-37, (1S,2R)-2-{[5-(5-fluoro-1H-pyrrolo[2,3-b]pyridin-3-yl)pyridin-3-yl]amino}-N-(2,2,2-trifluoroethyl)cyclohexane-carboxamide]: the IC50 in test [1] was no more than 10 nM; in test [2], 10 to 500 nM.
The corresponding values for `CC(CO)NC(=O)c1cnc2[nH]cc(-c3cncc(N[C@@H](C(=O)NCC(F)(F)F)C(C)C)c3)c2c1` (stereo partly drawn) [Example 3-4, N-(2-hydroxy-1-methylethyl)-3-[5-({(1R)-2-methyl-1-[(2,2,2-trifluoroethyl)carbamoyl]propyl}amino)pyridin-3-yl]-1H-pyrrolo[2,3-b]pyridine-5-carboxamide] are no more than 10 nM and no more than 10 nM.
For `CC(C)[C@H](Nc1cncc(-c2c[nH]c3ncc(OCCc4ccccc4)cc23)c1)C(=O)NCC(F)(F)F` [Example 2-7, N~2~-{5-[5-(2-phenylethoxy)-1H-pyrrolo[2,3-b]pyridin-3-yl]pyridin-3-yl}-N-(2,2,2-trifluoroethyl)valinamide], the figures for the IC50 in test [1] and in test [2] were no more than 10 nM and 10 to 500 nM, respectively.
On to `C=CCOCc1cnc2[nH]cc(-c3cncc(N[C@@H](C(=O)NCC(F)(F)F)C(C)C)c3)c2c1` [Example 9-5, N~2~-(5-{5-[(prop-2-en-1-yloxy)methyl]-1H-pyrrolo[2,3-b]pyridin-3-yl}pyridin-3-yl)-N-(2,2,2-trifluoroethyl)-D-valinamide], for which the IC50 was no more than 10 nM in test [1] and 10 to 500 nM in test [2].
Turning to `CCOC(=O)Nc1cnc2[nH]cc(-c3cncc(NC(C(=O)NCC(F)(F)F)C(C)C)c3)c2c1` (stereo not shown) [Example 7-2, ethyl {3-[5-({2-methyl-1-[(2,2,2-trifluoroethyl)carbamoyl]propyl}amino)pyridin-3-yl]-1H-pyrrolo[2,3-b]pyridin-5-yl}carbamate], the IC50 in test [1] and in test [2] was 10 to 500 nM in each case.
`C[C@@H](Nc1cncc(-c2c[nH]c3ncc(Cl)c(F)c23)c1)C(=O)NCC(F)(F)F` [Example 1-36, N~2~-[5-(5-chloro-4-fluoro-1H-pyrrolo[2,3-b]pyridin-3-yl)pyridin-3-yl]-N-(2,2,2-trifluoroethyl)-D-alaninamide]: the values for the IC50 in test [1] and in test [2] were 10 to 500 nM and greater than 500 nM, respectively.
Consider `NC(=O)c1cnc2[nH]cc(-c3cncc(N[C@@H]4CCCC[C@@H]4C(=O)NCC(F)(F)F)c3)c2c1` [Example 1-40, 3-[5-({(1R,2S)-2-[(2,2,2-trifluoroethyl)carbamoyl]cyclo-hexyl}amino)pyridin-3-yl]-1H-pyrrolo[2,3-b]pyridine-5-carboxamide], for which the IC50 in test [1] and in test [2] was no more than 10 nM each time.
For the molecule `CC(C)[C@H](Nc1cncc(-c2c[nH]c3ncc(OCCCN(C)C)cc23)c1)C(=O)NCC(F)(F)F` [Example 2-14, N~2~-(5-{5-[3-(dimethylamino)propoxy]-1H-pyrrolo[2,3-b]pyridin-3-yl}pyridin-3-yl)-N-(2,2,2-trifluoroethyl)valinamide], the IC50 in test [1] was no more than 10 nM; in test [2], 10 to 500 nM.
With `CC(C)[C@@H](Nc1cncc(-c2c[nH]c3ncc(Cl)cc23)c1)C(=O)NCC(F)(F)F` (single isomer, unassigned) [Example 1-1], the IC50 in test [1] was no more than 10 nM; in test [2], 10 to 500 nM.
On to `C/C=C/C(=O)NCc1cnc2[nH]cc(-c3cncc(N[C@H](C(=O)NCC(F)(F)F)C(C)C)c3)c2c1` [Example 10-4, N~2~-[5-(5-{[(2E)-but-2-enoylamino]methyl}-1H-pyrrolo[2,3-b]pyridin-3-yl)pyridin-3-yl]-N-(2,2,2-trifluoroethyl)valinamide], for which the IC50 is no more than 10 nM in test [1] and 10 to 500 nM in test [2].
The corresponding values for `CC(C)[C@H](Nc1cncc(-c2c[nH]c3ncc(NS(C)(=O)=O)cc23)c1)C(=O)NCC(F)(F)F` [Example 5-4, N^2-(5-{5-[(methylsulfonyl)amino]-1H-pyrrolo[2,3-b]pyridin-3-yl}pyridin-3-yl)-N-(2,2,2-trifluoroethyl)-L-valinamide] are 10 to 500 nM and greater than 500 nM.
